Assay results: US20140296484A1, “Cyclin Based Inhibitors of CDK2 and CDK4” (University of South Carolina, priority 2013, published 2014)
Where “and” joins values, the source holds several entries; their conditions need not be identical. Identical values can stand only once. Like-named read-outs stand apart in the source and are kept apart here. Where a SMILES comes first, the peptide text is derived from it. Where no end group is shown, it is not given here. [ ]: non-standard residue; d: D form. The star is where a group is joined. X5 = Cc1nc(C(=O)*)nn1-c1cc(Cl)cc(Cl)c1; Ala(cPent) = N[C@@H](CC1CCCC1)C(=O)O; X1 = Cc1nc(C(=O)*)nn1-c1ccc(Cl)cc1; X2 = O=C(c1ccc(-c2ccc(Cl)cc2)o1)*; 3Pal = N[C@@H](Cc1cccnc1)C(=O)O; 2Thi = N[C@@H](Cc1cccs1)C(=O)O; 3Thi = N[C@@H](Cc1ccsc1)C(=O)O; Cba = N[C@@H](CC1CCC1)C(=O)O; Picolinoyl = O=C(c1ccccn1)*; Bz = O=C(c1ccccc1)*

Columns and labels:
CDK4/Cyclin D1 [1] = target: T1, CDK4/Cyclin D1 (Homo sapiens, UniProt P24385); test: In vitro kinase assay, 32P filter capture with GST-Rb substrate; assay type: biochemical; details: for IC50: kinase assay
CDK2/Cyclin A2 = CDK2/Cyclin A2 (Homo sapiens, UniProt P20248); test: as above; assay type: biochemical
CDK2/cyclin A = CDK2/cyclin A (Homo sapiens, UniProt P20248); test: Fluorescence polarization (FP) competitive binding assay
Protocol: (§1) Once the compounds were characterized, their binding affinities were tested by FP assay.

CDK4/Cyclin D1 [2] = target: T1, CDK4/Cyclin D1; test: as above
Protocol: (§2) In order to assess the contribution of the PLA H-bond acceptor, analogous compounds were made in each series and activities for the 4-chloro and 3,5-dichloro analog were evaluated in each context.
(§3) Several additional analogs were synthesized in addition to the 3,5 dichloro and 4-chlorophenyl analogs. In addition to determining their inhibition of CDK2/cyclin A, the availability of the CDK4/cyclin D1 binding assay was exploited to develop SAR for both kinases.
as §1

[3] = as above; details: Table 20; read-out: CDK2/Cyclin A IC050
Protocol: as §2, §3, §1

36 other protein kinases = details: cited from earlier work
[4] = tested on: retinoblastoma (Rb)-positive tumor cells; details: cited from earlier work
[5] = tested on: Colo-205 human colon carcinoma xenografts; details: oral administration to mice bearing Colo-205 xenografts; cited from earlier work
CDK2/E = CDK2/E (Homo sapiens, UniProt P24864); test: In vitro kinase assay
[6] = Table 15, read-out: CDK2/Cyclin D1 IC50
[7] = competitive binding (FP) assay, read-out: CDK2/Cyclin A IC50
[8] = Table 10, Scaffold III N-caps on the peptide link, read-out: IC50 CDK2/A2
[9] = competitive binding (FP) assay, read-out: CDK4/Cyclin D1 IC50

T1 sequence (P24385 whole entry): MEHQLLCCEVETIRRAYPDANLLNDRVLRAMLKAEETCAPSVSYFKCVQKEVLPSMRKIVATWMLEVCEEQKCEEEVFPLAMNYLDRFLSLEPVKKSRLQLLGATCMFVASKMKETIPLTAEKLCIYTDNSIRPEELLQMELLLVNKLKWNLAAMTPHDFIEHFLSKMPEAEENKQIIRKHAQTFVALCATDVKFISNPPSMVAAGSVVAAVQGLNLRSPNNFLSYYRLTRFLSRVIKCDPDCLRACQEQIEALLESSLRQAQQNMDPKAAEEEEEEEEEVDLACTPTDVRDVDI
T1 sequence (P11802 whole entry partner): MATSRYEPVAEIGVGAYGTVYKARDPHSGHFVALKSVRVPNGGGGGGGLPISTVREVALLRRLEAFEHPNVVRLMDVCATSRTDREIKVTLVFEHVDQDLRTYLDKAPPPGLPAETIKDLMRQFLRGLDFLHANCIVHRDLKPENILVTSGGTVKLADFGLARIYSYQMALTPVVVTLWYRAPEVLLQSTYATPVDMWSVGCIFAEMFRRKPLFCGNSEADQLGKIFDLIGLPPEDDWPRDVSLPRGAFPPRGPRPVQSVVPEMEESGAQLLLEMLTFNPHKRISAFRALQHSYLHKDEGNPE

CC(C)C[C@@H](CC(=O)NCc1cccc(Oc2ccccc2)c1)NC(=O)[C@H](CCCNC(=N)N)NC(=O)[C@@H](N)CCCNC(=N)N [SCCP 5624, Arg-Arg-β-homoleucyl-3-phenoxybenzylamid]
selectivity (CDK4/Cyclin D1 [1]; CDK4/cyclin D1 vs CDK2/cyclin A): selective for CDK4/cyclin D1

CC[C@H](C)[C@H](NC(=O)[C@H](CC(C)C)NC(=O)[C@H](CCCNC(=N)N)NC(=O)[C@H](CCCNC(=N)N)NC(=O)[C@H](CCCCN)NC(=O)[C@H](C)NC(=O)[C@@H](N)Cc1c[nH]cn1)C(=O)N[C@@H](CC1CCCC1)C(N)=O [HAKRRLIX5] (H-HAKRRLI[Ala(cPent)]-NH2)
IC50 (CDK4/Cyclin D1 [1]): 90 µM
IC50 (CDK2/Cyclin A2): 20 µM

N=C(N)NCCCC(NC(=O)c1ccccc1)C(=O)Nc1ccc2ccccc2c1 (stereo not drawn) [N-(5-guanidino-1-(naphthalen-2-ylamino)-1-oxopentan-2-yl)benzamide]
binding in the FP assay (CDK2/cyclin A; cyclin not specified (Cyclin A and D1 expected)): weakly binding

CCN(CCc1ccccc1)C(=O)CC(CC(C)C)NC(=O)[C@H](CCCNC(=N)N)NC(=O)c1nc(C)n(-c2cc(Cl)cc(Cl)c2)n1 (stereo partly drawn) [compound 6003]
IC50 (CDK4/Cyclin D1 [2]; [6]): > 180 µM

CC[C@H](C)[C@H](NC(=O)[C@H](CC(C)C)NC(=O)[C@H](CCCNC(=N)N)NC(=O)[C@H](CCCNC(=N)N)NC(=O)[C@H](CCCCN)NC(=O)[C@H](C)NC(=O)[C@@H](N)Cc1c[nH]cn1)C(=O)N[C@@H](Cc1cccnc1)C(N)=O [HAKRRLIX7] (H-HAKRRLI[3Pal]-NH2)
IC50 (CDK2/Cyclin A2): 29 µM

Cc1nc(C(=O)N[C@@H](CCCNC(=N)N)C(=O)NC(CC(=O)NCc2ccccc2)CC(C)C)nn1-c1cc(Cl)cc(Cl)c1 (stereo partly drawn) [compound 6000]
IC50 (CDK2/cyclin A; [7]): > 180 µM
IC50 (CDK4/Cyclin D1 [2]; [6]): > 180 µM

Cc1nc(C(=O)NC(CCCNC(=N)N)C(=O)NC(CC(C)C)C(=O)NCCCc2ccccc2)nn1-c1cc(Cl)cc(Cl)c1 (stereo not drawn) [compound 6004]
IC50 (CDK2/cyclin A; [7]): 57.7 µM
IC50 (CDK4/Cyclin D1 [2]; [6]): > 180 µM

Cc1nc(C(=O)NC(CCCCNC(=N)N)C(=O)NC(CC(C)C)c2ccccc2OCC(C)C)nn1-c1cc(Cl)cc(Cl)c1 (stereo not drawn) [compound 5978]
IC50 (CDK2/cyclin A; [7]): > 180 µM
IC50 [3]: > 180 µM

Cc1nc(C(=O)N[C@@H](CCCNC(=N)N)C(=O)NC(CC(=O)NCCc2ccccc2)CC(C)C)nn1-c1cc(Cl)cc(Cl)c1 (stereo partly drawn) [compound 6002]
IC50 (CDK2/cyclin A; [7]): > 180 µM
IC50 (CDK4/Cyclin D1 [2]; [6]): > 180 µM

CC[C@H](C)[C@H](NC(=O)[C@H](CC(C)C)NC(=O)[C@H](CCCNC(=N)N)NC(=O)c1ccccn1)C(=O)N[C@@H](Cc1ccccc1)C(=O)O [525 (RLIF form)] (Picolinoyl-RLIF-OH)
IC50 (CDK2/cyclin A; Table 11, value tagged (LIF), read-out: IC50 CDK2/A2 (LIF)): 94.3 ± 14.9 µM
IC50 (CDK4/Cyclin D1 [2]; Table 11, value tagged (LIF) (0321), read-out: IC50 CDK4/D1 (LIF) (0321)): 49 µM
IC50 (CDK4/Cyclin D1 [2]; Table 11, value tagged (LIF), read-out: IC50 CDK4/D1 (LIF)): 64 µM

CC[C@H](C)[C@H](NC(=O)[C@H](CC(C)C)NC(=O)[C@H](CCCNC(=N)N)NC(=O)c1ccccc1)C(=O)N[C@@H](Cc1ccccc1)C(N)=O [compound 5857] (Bz-RLIF-NH2)
IC50 (CDK2/cyclin A): > 100 µM
IC50 (CDK4/Cyclin D1 [2]): 100 to 180 µM

H-SAKRNLFGM-NH2
IC50 (CDK4/Cyclin D1 [1]): 146 µM

CCN(CCCc1ccccc1)C(=O)C(CC(C)C)NC(=O)[C@H](CCCNC(=N)N)NC(=O)c1nc(C)n(-c2cc(Cl)cc(Cl)c2)n1 (stereo partly drawn) [compound 6005]
IC50 (CDK2/cyclin A; [7]): > 180 µM
IC50 (CDK4/Cyclin D1 [2]; [6]): > 180 µM

CC[C@H](C)[C@H](NC(=O)[C@H](CC(C)C)NC(=O)[C@H](CCCNC(=N)N)NC(=O)c1nc(C)n(-c2cc(Cl)cc(Cl)c2)n1)C(=O)NCc1cccc(Oc2ccccc2)c1 [SCCP10]
IC50 (CDK4/Cyclin D1 [1]): 8 µM

CCN(CCc1ccccc1)C(=O)CC(CC(C)C)NC(=O)[C@H](CCCNC(=N)N)NC(=O)c1nc(C)n(-c2cc(Cl)cc(Cl)c2)n1 (stereo partly drawn) [SCCP 6003]
IC50 (CDK2/cyclin A; [7]): 85.6 µM

CC(C)C[C@H](NC(=O)[C@H](CCCNC(=N)N)NC(=O)[C@H](CCCNC(=N)N)NC(=O)[C@H](CCCCN)NC(=O)[C@H](C)NC(=O)[C@@H]1CCCN1)C(=O)N[C@@H](Cc1ccccc1)C(=O)NCC(N)=O
IC50 (CDK4/Cyclin D1 [1]): 6.7 µM

5919 (RLIF) [compound 5919]
IC50 (CDK2/cyclin A; [8]): 16.7 µM

CC(=O)c1c(C)c2cnc(Nc3ccc(N4CCNCC4)cn3)nc2n(C2CCCC2)c1=O [PD0332991]
activity against 36 other protein kinases (36 other protein kinases): no activity
antiproliferative activity [4]: potent antiproliferative agent
tumor response [5]: marked tumor regression

CCN(Cc1ccccc1)C(=O)CC(CC(C)C)NC(=O)[C@H](CCCNC(=N)N)NC(=O)c1nc(C)n(-c2cc(Cl)cc(Cl)c2)n1 (stereo partly drawn) [compound 6001]
IC50 (CDK2/cyclin A; [7]): > 180 µM
IC50 (CDK4/Cyclin D1 [2]; [6]): > 180 µM

H-SAKRALFGM-NH2
IC50 (CDK4/Cyclin D1 [1]): 68 µM

CCOc1ccccc1C(CC(C)C)NC(=O)C(CCCCNC(=N)N)NC(=O)c1nc(C)n(-c2cc(Cl)cc(Cl)c2)n1 (stereo not drawn) [compound 5984]
IC50 (CDK2/cyclin A; [7]): > 180 µM
IC50 [3]: > 180 µM

Cc1nc(C(=O)N[C@@H](CCCNC(=N)N)C(=O)NC(CC(C)C)C(=O)NCCCc2ccccc2)nn1-c1cc(Cl)cc(Cl)c1 (stereo partly drawn) [SCCP 6004]
IC50 (CDK2/cyclin A; [7]): 57.7 µM

H-HAKTRLIF-NH2
IC50 (CDK4/Cyclin D1 [1]): 25 µM
IC50 (CDK2/Cyclin A2): 50 µM

CC[C@H](C)[C@H](NC(=O)[C@H](CC(C)C)NC(=O)[C@H](CCCNC(=N)N)NC(=O)c1ccc(-c2ccc(Cl)cc2)o1)C(=O)N[C@@H](Cc1ccccc1)C(=O)O [SCCP 5770] (X2-RLIF-OH)
fold less potent relative to the triazole N capping group (CDK4/Cyclin D1 [2]; CDK4/cyclin D1 context): 25 fold

CC[C@H](C)[C@H](NC(=O)[C@H](CC(C)C)NC(=O)[C@H](CCCNC(N)=O)NC(=O)[C@@H](N)CCCNC(=N)N)C(=O)N[C@@H](Cc1ccccc1)C(N)=O [RCitLIF]
IC50 (CDK4/Cyclin D1 [1]): 179 µM

5921 (RLIF; also: C7H16N2 group attached) [compound 5921]
IC50 (CDK2/cyclin A; [8]): 6.04 µM and 6.6 µM

COc1ccccc1CC(CC(C)C)NC(=O)C(CCCCNC(=N)N)NC(=O)c1nc(C)n(-c2cc(Cl)cc(Cl)c2)n1 (single isomer, unassigned) [compound 5981]
IC50 (CDK2/cyclin A; [7]): > 180 µM
IC50 [3]: > 180 µM

CC[C@H](C)[C@H](NC(=O)[C@H](CC(C)C)NC(=O)[C@H](CCCNC(=N)N)NC(=O)c1nc(C)n(-c2ccc(Cl)cc2)n1)C(=O)N[C@@H](Cc1ccccc1)C(=O)O [SCCP 5774] (X1-RLIF-OH)
IC50 (CDK2/cyclin A; [7]): 25 µM
IC50 (CDK4/Cyclin D1 [2]; [9]): 11 µM

CC[C@H](C)[C@H](NC(=O)[C@H](CC(C)C)NC(=O)[C@H](CCCNC(=N)N)NC(=O)[C@H](CCCNC(=N)N)NC(=O)[C@H](CCCCN)NC(=O)[C@H](C)NC(=O)[C@@H](N)Cc1c[nH]cn1)C(=O)N[C@@H](Cc1ccsc1)C(N)=O [HAKRRLIX3] (H-HAKRRLI[3Thi]-NH2)
IC50 (CDK2/Cyclin A2): 25 µM

CC[C@H](C)[C@H](NC(=O)[C@H](CC(C)C)NC(=O)[C@H](CCCNC(=N)N)NC(=O)[C@@H](N)CCCNC(N)=O)C(=O)N[C@@H](Cc1ccccc1)C(N)=O [CitRLIF, Cit-RLIF]
IC50 (CDK4/Cyclin D1 [1]): 179 µM

CC[C@H](C)[C@H](NC(=O)[C@H](CC(C)C)NC(=O)[C@H](CCCNC(=N)N)NC(=O)[C@H](CCCNC(=N)N)NC(=O)[C@H](CCCCN)NC(=O)[C@H](C)NC(=O)[C@@H](N)Cc1c[nH]cn1)C(=O)N[C@@H](Cc1cccs1)C(N)=O [HAKRRLIX2] (H-HAKRRLI[2Thi]-NH2)
IC50 (CDK2/Cyclin A2): 3.6 µM

CCCOc1ccc(C)cc1C(CC(C)C)NC(=O)C(CCCCNC(=N)N)NC(=O)c1nc(C)n(-c2cc(Cl)cc(Cl)c2)n1 (stereo not drawn) [compound 5980]
IC50 (CDK2/cyclin A; [7]): > 180 µM
IC50 [3]: > 180 µM

COc1ccccc1C(CC(C)C)NC(=O)C(CCCCNC(=N)N)NC(=O)c1nc(C)n(-c2cc(Cl)cc(Cl)c2)n1 (stereo not drawn) [compound 5985]
IC50 (CDK2/cyclin A; [7]): > 180 µM
IC50 [3]: > 180 µM

COc1ccccc1CC(CC(C)C)NC(=O)C(CCCCNC(=N)N)NC(=O)c1nc(C)n(-c2cc(Cl)cc(Cl)c2)n1 (stereo not drawn) [compound 5982]
IC50 (CDK2/cyclin A; [7]): > 180 µM
IC50 [3]: > 180 µM

CC[C@H](C)[C@H](NC(=O)[C@H](CC(C)C)NC(=O)[C@H](CCCNC(=N)N)NC(=O)[C@H](CCCNC(=N)N)NC(=O)[C@H](CCCCN)NC(=O)[C@H](C)NC(=O)[C@@H](N)Cc1c[nH]cn1)C(=O)N[C@@H](Cc1ccco1)C(N)=O [HAKRRLIX1]
IC50 (CDK2/E): 1300 nM
IC50 (CDK2/Cyclin A2): 6.1 µM

CC[C@H](C)[C@H](NC(=O)[C@H](CC(C)C)NC(=O)[C@H](CCCNC(=N)N)NC(=O)c1nc(C)n(-c2cc(Cl)cc(Cl)c2)n1)C(=O)N[C@@H](Cc1ccccc1)C(=O)O [SCCP 5773, 1-(3,5-dichlorophenyl)-5-methyl-1H-1,2,4-triazole-3-carbonyl-RLIF] (X5-RLIF-OH)
IC50 (CDK2/cyclin A; [7]): 12 µM
IC50 (CDK4/Cyclin D1 [2]; [9]): 27 µM

CC[C@H](C)[C@H](NC(=O)[C@H](CC(C)C)NC(=O)[C@H](CCCNC(=N)N)NC(=O)[C@H](CCCNC(=N)N)NC(=O)[C@H](CCCCN)NC(=O)[C@H](C)NC(=O)[C@@H](N)Cc1c[nH]cn1)C(=O)N[C@@H](CC1CCC1)C(N)=O [HAKRRLIX4] (H-HAKRRLI[Cba]-NH2)
IC50 (CDK4/Cyclin D1 [1]): 100 µM
IC50 (CDK2/Cyclin A2): 25 µM

5920 (RLIF; also: OH in table column, meaning not given here) [compound 5920]
IC50 (CDK2/cyclin A; [8]): 5.86 µM
